Results on 28 molecules are retold here after patent US20230250096A1, “SUBSTITUTED PHENYL-1H-PYRROLO[2,3-c] PYRIDINE DERIVATIVES” (Janssen Pharmaceutica NV, priority 2021, published 2023).

Type in all cases: cell-based, human
The test system of one test is KO-52 cells. The test can be described thus: Proliferation assay (spheroid confluence, 8 days), KO-52 control cell line. As to conditions: read-out: spheroid assay_KO-52 IC50. An outline of the steps: (§1)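 Absolute IC50 derived from spheroid confluence imaged on day 8, scaled between DMSO (0%) and a cytotoxic low control such as 1 μM staurosporin, fitted with variable slope, bounds fixed at 0 and 100%. Seeding 200 cells/well (300 for KO-52), ultra-low attachment plates, 0.3% DMSO, 37° C.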

The subject of a further test is OCI-AML3 cells. In words: Proliferation assay (spheroid confluence, 8 days), OCI-AML3. The conditions noted are these: read-out: spheroid assay_OCI-AML3 IC50. How it is done:
The anti-proliferative effect of menin/MLL protein/protein interaction inhibitor test compounds was assessed in human leukemia cell lines. The cell line MOLM14 harbors a MLL translocation and expresses the MLL fusion protein MLL-AF9, respectively, as well as the wildtype protein from the second allele. OCI-AML3 cells that carry the NPM1c gene mutation were also tested. […] KO-52 was used as a control cell line containing two MLL (KMT2A) wildtype alleles in order to exclude compounds that display general cytotoxic effects.
MOLM14 cells were cultured in RPMI-1640 (Sigma Aldrich) supplemented with 10% heat-inactivated fetal bovine serum (HyClone), 2 mM L-glutamine (Sigma Aldrich) and 50 μg/ml gentamycin (Gibco). KO-52 and OCI-AML3 cell lines were propagated in alpha-MEM (Sigma Aldrich) supplemented with 20% heat-inactivated fetal bovine serum (HyClone), 2 mM L-glutamine (Sigma Aldrich) and 50 μg/ml gentamycin (Gibco).
In order to assess the anti-proliferative effects, 200 MOLM14 cells, 200 OCI-AML3 cells or 300 KO-52 cells were seeded in 200 μl media per well in 96-well round bottom, ultra-low attachment plates (Costar, catalogue number 7007). Cell seeding numbers were chosen based on growth curves to ensure linear growth throughout the experiment. Test compounds were added at different concentrations and the DMSO content was normalized to 0.3%. Cells were incubated for 8 days at 37° C. and 5% CO2. Spheroid like growth was measured in real-time by live-cell imaging (IncuCyteZOOM, Essenbio, 4×objective) acquiring images at day 8. Confluence (%) as a measure of spheroid size was determined using an integrated analysis tool.
In order to determine the effect of the test compounds over time, the confluence in each well as a measure of spheroid size, was calculated. Confluence of the highest dose of a reference compound was used as baseline for the LC (Low control) and the confluence of DMSO treated cells was used as 0% cytotoxicity (High Control, HC).
Absolute IC50 values were calculated as percent change in confluence as follows:
LC=Low Control: cells treated with e.g. 1 μM of the cytotoxic agent staurosporin, or e.g. cells treated with a high concentration of an alternative reference compound
HC=High Control: Mean confluence (%) (DMSO treated cells)
% Effect=100−(100*(Sample−LC)/(HC−LC))
GraphPad Prism (version 7.00) was used to calculate the IC50. Dose-response equation was used for the plot of % Effect vs Log10 compound concentration with a variable slope and fixing the maximum to 100% and the minimum to 0%.

Another test concerns MOLM14 cells. In words: Proliferation assay (spheroid confluence, 8 days), MOLM14. As to conditions: read-out: spheroid assay_MOLM14 IC50. Put shortly:
as §1

Setting [1] is: Homo sapiens, OCI-AML-3, OCI-AML3.

The structures appear in SMILES notation. Where two headings read alike, the source gives them in different places.

One may read the IC50 as the concentration that inhibits the measured activity by half. As for `CN=S(=O)(c1cc(F)ccc1-n1cc(CC2CCN(CC3CCOCC3)C2)c2c(C)cncc21)C(C)C` (single isomer, unassigned) [Compound 77b], the results for the IC50 with KO-52 cells, with OCI-AML3 cells (setting [1]) and in the test with MOLM14 cells (MOLM14) were 1900 nM, 128 nM and 81 nM, respectively.

For the molecule `CC(=O)N1CCC(N2CC[C@H](Cc3cn(-c4ccc(F)cc4C(=O)N(C)C(C)C)c4cncc(C)c34)C2)CC1` (single isomer, unassigned) [Compound 81], the half-inhibitory concentration (IC50) in the test on KO-52 cells (Homo sapiens) came to 4000 nM; in the test on OCI-AML3 cells (setting [1]) it was 100 nM; in the test with MOLM14 cells (Homo sapiens, MOLM-14, MOLM14), 58 nM.

Turning to `Cc1cncc2c1c(CC1CCN(CC3CCN(C(=O)[C@@H](C)O)CC3)C1)cn2-c1ccc(F)cc1C(=O)N(C)C(C)C` (single isomer, unassigned) [Compound 85], the IC50 was found to be 2200 nM with KO-52 cells (Homo sapiens); 22 nM with OCI-AML3 cells (setting [1]); 12 nM in the test on MOLM14 cells (Homo sapiens, MOLM-14, MOLM14).

Take `Cc1cncc2c1c(CC1CCN(CC3CCN(C(=O)[C@H](C)O)CC3)C1)cn2-c1ccc(F)cc1C(=O)N(C)C(C)C` (single isomer, unassigned) [Compound 86]: the IC50 in the test with KO-52 cells (Homo sapiens) amounted to 1300 nM; with OCI-AML3 cells (setting [1]), 23 nM; with MOLM14 cells (Homo sapiens, MOLM-14, MOLM14) it was 10 nM.

For the molecule `CC(=O)N1CCC(C(C)N2CCC(Cc3cn(-c4ccc(F)cc4C(=O)N(C)C(C)C)c4cncc(C)c34)C2)CC1` (single isomer, unassigned) [Compound 116a], the IC50 with KO-52 cells (Homo sapiens) is 3800 nM; in the test with OCI-AML3 cells (setting [1]), 9 nM; in the test on MOLM14 cells (Homo sapiens, MOLM-14, MOLM14), 8 nM.

For the molecule `Cc1cncc2c1c(CC1CCN(CC3CCN(C(=O)C(C)(C)O)CC3)C1)cn2-c1ccc(F)cc1C(=O)N(C)C(C)C` (single isomer, unassigned) [Compound 125], the IC50 came to 7000 nM with KO-52 cells (Homo sapiens); 12 nM in the test on OCI-AML3 cells (setting [1]); 11 nM in the test on MOLM14 cells (Homo sapiens, MOLM-14, MOLM14).

For the molecule `COCC(=O)N1CCC(CN2CC[C@@H](Cc3cn(-c4ccc(F)cc4C(=O)N(C)C(C)C)c4cncc(C)c34)C2)CC1` (single isomer, unassigned) [Compound 136], the concentration for half-maximal inhibition (IC50) in the test on KO-52 cells (Homo sapiens) worked out at 1400 nM; in the test with OCI-AML3 cells (setting [1]), 54 nM; in the test on MOLM14 cells (Homo sapiens, MOLM-14, MOLM14), 28 nM.

Regarding `CC(=O)N1CCC(N2CC[C@H](Cc3cn(-c4ccc(F)cc4C(=O)N(C)C(C)C)c4cncc(C)c34)C2)C(C)C1` (single isomer, unassigned) [Compound 137a], the IC50 in the test on KO-52 cells (Homo sapiens) is 1100 nM; with OCI-AML3 cells (setting [1]), 23 nM; with MOLM14 cells (Homo sapiens, MOLM-14, MOLM14), 15 nM.

On to `CNC(=O)[C@H]1CC[C@H](CN2CC([C@H](C)c3cn(-c4ccc(F)cc4C(=O)N(C)C(C)C)c4cncc(C)c34)C2)CC1` (single isomer, unassigned) [Compound 164b], for which the concentration for half-maximal inhibition (IC50) in the test on KO-52 cells (Homo sapiens) was found to be 10400 nM; with OCI-AML3 cells (setting [1]) it was 12 nM; in the test with MOLM14 cells (Homo sapiens, MOLM-14, MOLM14), 10 nM.

On to `Cc1cncc2c1c(CC1CCN(CC3CCC(=O)N(C)CC3)C1)cn2-c1ccc(F)cc1C(=O)N(C)C(C)C` (single isomer, unassigned) [Compound 184a], for which the IC50 was more than 15000 nM with KO-52 cells (Homo sapiens), 26 nM with OCI-AML3 cells (OCI-AML3) and 13 nM in the test with MOLM14 cells (MOLM14).

Turning to `Cc1cncc2c1c(CC1CCN(CC3CCC(=O)N(C)CC3)C1)cn2-c1ccc(F)cc1C(=O)N(C)C(C)C` (single isomer, unassigned) [Compound 184b], the IC50 is more than 15000 nM in the test on KO-52 cells, 138 nM in the test on OCI-AML3 cells (OCI-AML3) and 52 nM in the test on MOLM14 cells (MOLM14).

`Cc1cncc2c1c(C[C@@H]1CCN([C@@H](CO)C3CCCOC3)C1)cn2-c1ccc(F)cc1C(=O)N(C)C(C)C` (single isomer, unassigned) [Compound 198a]: the IC50 with OCI-AML3 cells (setting [1]) stood at 15 nM; in the test on MOLM14 cells (Homo sapiens, MOLM-14, MOLM14), 10 nM.

For `Cc1cncc2c1c(C[C@@H]1CCN([C@H](CO)C3CCCOC3)C1)cn2-c1ccc(F)cc1C(=O)N(C)C(C)C` (single isomer, unassigned) [Compound 198b], the half-maximal inhibitory concentration (IC50) was more than 15000 nM with KO-52 cells (Homo sapiens) and 156 nM in the test on OCI-AML3 cells (setting [1]).

For `Cc1cncc2c1c(C[C@@H]1CCN(C[C@H]3CCNC(=O)CC3)C1)cn2-c1ccc(F)cc1C(=O)N1[C@H](C)CC[C@H]1C` (single isomer, unassigned) [Compound 352a], the IC50 was more than 15000 nM in the test on KO-52 cells (Homo sapiens); 11 nM in the test on OCI-AML3 cells (setting [1]); 7 nM in the test on MOLM14 cells (Homo sapiens, MOLM-14, MOLM14).

`Cc1cncc2c1c(C[C@@H]1CCN(C[C@@H]3CCNC(=O)CC3)C1)cn2-c1ccc(F)cc1C(=O)N1[C@H](C)CC[C@H]1C` (single isomer, unassigned) [Compound 352b]: the IC50 with KO-52 cells (Homo sapiens) was more than 15000 nM; in the test with OCI-AML3 cells (setting [1]) it was 263 nM; in the test with MOLM14 cells (Homo sapiens, MOLM-14, MOLM14) it was 140 nM.

As to `Cc1cncc2c1c(C[C@@H]1CCN(CC3CCNC(=O)CC3)C1)cn2-c1ccc(F)cc1C(=O)N1CCC[C@H]1C` (single isomer, unassigned) [Compound 353a], the IC50 is more than 15000 nM in the test on KO-52 cells (Homo sapiens); 11 nM with OCI-AML3 cells (OCI-AML3); 6 nM with MOLM14 cells (Homo sapiens, MOLM-14, MOLM14).

Take `CC(=O)N1CCC(C)(CN2CC(Cc3cn(-c4ccc(F)cc4C(=O)N(C)C(C)C)c4cncc(C)c34)C2)CC1` [Compound 84]: the IC50 in the test with KO-52 cells (Homo sapiens) amounted to 4300 nM; in the test with OCI-AML3 cells (setting [1]), 120 nM; with MOLM14 cells (Homo sapiens, MOLM-14, MOLM14) it was 63 nM.

Turning to `CC(=O)NC1CCC(N2CC[C@@H](Cc3cn(-c4ccc(F)cc4C(=O)N(C)C(C)C)c4cncc(C)c34)C2)CC1` (stereo partly drawn) [Compound 201], the IC50 stood at 35 nM with OCI-AML3 cells (setting [1]) and 31 nM with MOLM14 cells (MOLM14).

Consider `CC(=O)N1CCC(CN2CCC(Cc3cn(-c4ccc(F)cc4C(=O)N(C)C(C)C)c4cncc(C)c34)C2C)CC1` (stereo not drawn) [Compound 228], for which the IC50 in the test with KO-52 cells (Homo sapiens) was 5800 nM; in the test with OCI-AML3 cells (setting [1]), 11 nM; with MOLM14 cells (Homo sapiens, MOLM-14, MOLM14), 10 nM.

Take `Cc1cncc2c1c(CC1CN(CC3CCOCC3)C1)cn2-c1ccc(F)cc1C(=O)N1CCC[C@H]1C` [Compound 279]: the half-inhibitory concentration (IC50) turned out to be 5100 nM with KO-52 cells (Homo sapiens) and 12 nM with MOLM14 cells (Homo sapiens, MOLM-14, MOLM14).

For `Cc1cncc2c1c(CC1CN(CC3CCOCC3)C1)cn2-c1ccc(F)cc1C(=O)N(CCO)C(C)C` [Compound 281], the half-inhibitory concentration (IC50) in the test with KO-52 cells (Homo sapiens) came to 4200 nM; in the test with MOLM14 cells (Homo sapiens, MOLM-14, MOLM14) it was 10 nM.

With `CC(=O)N1CCC(CN2CC[C@@H](Cc3cn(-c4ccc(F)cc4C(=O)N4CCC5CC54)c4cncc(C)c34)C2)CC1` (stereo partly drawn) [Compound 311], the IC50 in the test on KO-52 cells (Homo sapiens) came to 5200 nM; in the test on MOLM14 cells (Homo sapiens, MOLM-14, MOLM14) it was 17 nM.

For the molecule `CC(=O)N1CCC(CN2CC[C@@H](Cc3cn(-c4ccc(F)cc4C(=O)N4CC5CC4CO5)c4cncc(C)c34)C2)CC1` (stereo partly drawn) [Compound 312], the IC50 in the test with KO-52 cells (Homo sapiens) was more than 15000 nM; in the test with MOLM14 cells (Homo sapiens, MOLM-14, MOLM14) it was 33 nM.

With `CC(=O)N1CCC(CN2CC[C@@H](Cc3cn(-c4ccc(F)cc4C(=O)N4CCC[C@H]4C)c4cncc(C)c34)C2)CC1` [Compound 315], the IC50 was found to be 2400 nM in the test with KO-52 cells (Homo sapiens) and 10 nM with MOLM14 cells (Homo sapiens, MOLM-14, MOLM14).

As for `CC(=O)N1CCC(CN2CC[C@@H](Cc3cn(-c4ccc(F)cc4C(=O)N4[C@@H](C)CC[C@@H]4C)c4cncc(C)c34)C2)CC1` [Compound 316], the IC50 with KO-52 cells (Homo sapiens) was 8900 nM; with MOLM14 cells (Homo sapiens, MOLM-14, MOLM14), 12 nM.

For the molecule `CC(=O)N1CCC(CN2CC[C@@H](Cc3cn(-c4ccc(F)cc4C(=O)N4CCC[C@@H]4C)c4cncc(C)c34)C2)CC1` [Compound 319], the IC50 with KO-52 cells (Homo sapiens) was more than 15000 nM; with MOLM14 cells (Homo sapiens, MOLM-14, MOLM14), 139 nM.

As to `CC(=O)N1CCC(CN2CC[C@@H](Cc3cn(-c4ccc(F)cc4C(=O)N(CC(C)O)C(C)C)c4cncc(C)c34)C2)CC1` (stereo partly drawn) [Compound 320], the IC50 with KO-52 cells (Homo sapiens) was 6900 nM; in the test with MOLM14 cells (Homo sapiens, MOLM-14, MOLM14), 19 nM.

Take `Cc1cncc2c1c(C[C@@H]1CCN(CC3CCN(C(=O)C(C)C)CC3)C1)cn2-c1ccc(F)cc1C(=O)N1CCC[C@H]1CO` [Compound 328]: the IC50 with OCI-AML3 cells (setting [1]) turned out to be 52 nM; in the test with MOLM14 cells (Homo sapiens, MOLM-14, MOLM14) it was 50 nM.
